Results as given in patent US20180327364A1, “MTOR INHIBITORS AND METHODS OF USE THEREOF” (Brandeis University, priority 2015, published 2018).

What was measured:
Assay type in all cases: cell-based
firefly luciferase [1] = assay: Luciferase assay in stably transduced luciferase HEK-293T cells; conditions: for luciferase levels / activity, inhibitor alone: 100 μg/mL cycloheximide or 6 μM bortezomib; for wild type luciferase signal: HEK-293T cells expressing HA-luciferase, 100 μM, 4 h
Method: Firefly luciferase and firefly luciferase-eDHFR were cloned into pBABE-puro vector which was a gift from Hartmut Land & Jay Morgenstern & Bob Weinberg (Addgene plasmid #1764). pBABE-puro-luciferase was co-transfected with VSV-G into GP2-293 cells (Retro-X Universal Packaging System, Clonetech, Mountain View, Calif.) with TransIT-2020 (MirusBio) according to TransIT-2020's manufacture's protocol. After 48 h, viral supernatant was harvested, spun down, filtered with a […] syringe filter, and added to HEK-293T supplemented with 8 μg/mL polybrene. After 4 h of infection, the media was replaced with fresh media. 48 h later, media was replaced with media containing 3 μg/mL puromycin. Media was replaced with fresh media containing puromycin every 3-4 days. After 2 weeks of puromycin selection, the cells were grown out from single cell colonies and screened for luciferase expression.
Stably transduced luciferase HEK-293T cells were plated in 96-well plates 24 h prior to treatment with 100 μM of Cbz-B3A, amine-B3A, acetyl-B3A, and Cbz-acetyl. After 4 h, cells were harvested and measured with Luciferase Assay System with Reporter Lysis Buffer from Promega according to the manufacturer's protocol. Before the addition of luciferin, protein concentration was measured by removing 2 μl of lysate from each well and adding it to diluted Bio-Rad Protein Assay Dye Reagent Concentrate, and the absorbance was measured at OD595. The protein concentration was used to normalize luciferase signal. For translation assays, cells were pretreated for 15 min with 100 μg/mL cycloheximide or 6 μM bortezomib. For the recombinant luciferase assay, Quantilum Recombinant Luciferase (Promega) was diluted 1:250,000 in reporter lysis buffer with 1 mg/mL BSA then mixed 1:1 with 200 μM compound in the same buffer for a final dilution of 1:500,000 and 100 μM compound in 20 μL. This was incubated for 10 min at room temperature then measured with Luciferase Assay System with Reporter Lysis Buffer from Promega according to the manufacturer's protocol.

[2] = system: 4EBP1 phosphorylation by mTORC1; assay: 4EBP1 phosphorylation immunoblot in HEK-293T cells
Method: (§1) Quantification of western blots was performed with ImageJ. Cells were lysed in RIPA buffer (1% NP-40, 1% NaDeoxycholate, 0.1% SDS, 10 mM TrisCl, 10 mM β-glycerophosphate, 10 mM Na pyrophosphate, 50 mM NaF, 200 μM Na vanadate, 1 mM EDTA, 500 μM EGTA, 1% benzonase, and supplemented with complete (Roche Diagnostics) protease inhibitors).

eIF2α = eIF2α phosphorylation immunoblot in HEK-293T cells; conditions: 1 h; tunicamycin 5 μg/mL, thapsigargin 500 nM; compared with vehicle
Method: as §1

[3] = system: protein translation in HEK-293T cells; assay: 35S-methionine/cysteine incorporation translation assay; conditions: saturating concentration (Cbz-B3A 10 μM); 4 h treatment then 1 h labeling
Method: 80,000 cells/well of HEK-293T cells were plated into 24 well plates 24 h before the assay. Cells were treated with indicated concentration of compound for 4 h. After 4 h, the media was removed and replaced with DMEM without methionine and cysteine (Lifetechnologies) supplemented with 0.2 mCi/mL EXPRESS [^35S] protein labeling mix (PerkinElmer), 10% dialyzed FBS (Pierce), 1× glutaMax (Gibco), 100 U/mL penicillin 100 μg/mL streptomycin (Gibco), 1 mM sodium pyruvate (Lifetechnologies), and the indicated concentration of compound. After 1 h, this media was removed, cells were washed with ice cold PBS, and lysed with low deoxycholate RIPA buffer (10 mM Tris-Cl, 1% NP-40, 0.5% Na Deoxycholate, 0.1% SDS, 140 mM NaCl, 1 mM EDTA, 500 μM EGTA, 1× Roche Complete protease inhibitors, 1:100 Benzonase, and at pH 8.0). Lysate was centrifuged at maximum speed for 20 m at 4° C. The concentration was measured by Bradford assay. 10 μg of lysate was added to […] ice cold 1 mg/mL BSA with 0.02% Na Azide. 1 mL of ice cold 10% TCA was added, the solutions were mixed and incubated on ice for 0.5 h. These mixtures were vacuum filtered onto GF/C Whatman glass microfiber filters. The filters were washed with 2×5 mL of 10% TCA, then 2×3 mL ethanol. The filters were then dried for a 0.5 h. The filters were placed into scintillation vials with 5 mL of scintillation fluid and read on a scintillation counter.

firefly luciferase [4] = assay: Luciferase assay in stably transduced luciferase HEK-293T cells; conditions: HEK-293T luciferase-eDHFR and wild-type luciferase cells; 200 TMP-B3A (unit not given) vs DMSO

## CC(C)C[C@H](NC(=O)[C@H](Cc1ccccc1)NC(=O)c1cnccn1)B(O)O [Bortezomib, reference compound]
Firefly luciferase [1]
  luciferase levels / activity, inhibitor alone: decreased luciferase levels

## C[C@@H]1C[C@@H]([C@H](O)CC2CC(=O)NC(=O)C2)C(=O)[C@@H](C)C1 [cycloheximide, reference compound]
Firefly luciferase [1]
  luciferase levels / activity, inhibitor alone: luciferase activity decreased

## CC(C)(C)OC(=O)/N=C(/NCCCC(NC(=O)OC(C)(C)C)C(=O)NCCCCNC(=O)OCc1ccccc1)NC(=O)OC(C)(C)C (centres unmarked) [JX-8]
[2]; 20 μM, 3 h, anti-4EBP1 western blot
  4EBP1 phosphorylation, comparison with Cbz-B3A: more potent mTOR inhibitor than CB3A

## CC(=O)NCCCCCCNC(=O)[C@H](CCCN/C(=N\C(=O)OC(C)(C)C)NC(=O)OC(C)(C)C)NC(=O)OC(C)(C)C [acetyl-B3A]
Firefly luciferase [1]
  wild type luciferase signal: decreased the wild type luciferase signal

## CC(=O)NCCCCCCNC(=O)OCc1ccccc1 [Cbz-acetyl]
[2]; Cbz-B3A 10 μM, Cbz-acetyl 10 μM, rapamycin 20 nM, 4 h
  4EBP1 phosphorylation (hyper- vs hypo-phosphorylated band): No shift
Firefly luciferase [1]
  wild type luciferase signal: not reduced

## C/C=C(/C)C(=O)O[C@H]1C(C)=C2[C@H]([C@@H]1OC(=O)CCCCCCC)[C@@](C)(OC(C)=O)C[C@H](OC(=O)CCC)[C@@]1(O)[C@H]2OC(=O)[C@@]1(C)O [thapsigargin]
eIF2α
  eIF2α phosphorylation: increased phosphorylation of eIF2α

## tunicamycin
eIF2α
  eIF2α phosphorylation: increased phosphorylation of eIF2α

## CO[C@H]1C[C@@H]2CC[C@@H](C)[C@@](O)(O2)C(=O)C(=O)N2CCCC[C@H]2C(=O)O[C@H]([C@H](C)C[C@@H]2CC[C@@H](O)[C@H](OC)C2)CC(=O)[C@H](C)/C=C(\C)[C@@H](O)[C@@H](OC)C(=O)[C@H](C)C[C@H](C)/C=C/C=C/C=C/1C [rapamycin, reference compound]
[3]
  maximal inhibition of translation (35S-methionine/cysteine incorporation): 35%

## CC(C)(C)OC(=O)/N=C(\NCCC[C@H](NC(=O)OC(C)(C)C)C(=O)NCCCCCCN)NC(=O)OC(C)(C)C [Amine-B3A]
Firefly luciferase [1]
  wild type luciferase signal: decreased the wild type luciferase signal

## COc1cc(Cc2cnc(N)nc2N)cc(OC)c1OCC(=O)NCCCCCCNC(=O)[C@H](CCCN/C(=N\C(=O)OC(C)(C)C)NC(=O)OC(C)(C)C)NC(=O)OC(C)(C)C [TMP-B3A]
Firefly luciferase [4]
  luciferase signal: reduced luciferase signal to similar levels in both luciferase-eDHFR and wild-type luciferase cells
